What was measured:
Axl = biological target: T1, Axl (Mus musculus, UniProt Q00993); test: Immunoblots for Axl and phospho-Axl; type: cell-based; conditions: APC-WT and APC-KO MC38 cells; R428 0.2 μM 24 h; rmGAS6 24 h
T1 construct: immunoblots for Axl and phospho-Axl in APC-WT and APC-KO MC38 cells after R428 treatment (0.2 μM, 24 h); endogenous in cells; host or cells: MC38 mouse colorectal cancer cells, APC-WT and isogenic APC-KO
T1 sequence (Q00993 19-888): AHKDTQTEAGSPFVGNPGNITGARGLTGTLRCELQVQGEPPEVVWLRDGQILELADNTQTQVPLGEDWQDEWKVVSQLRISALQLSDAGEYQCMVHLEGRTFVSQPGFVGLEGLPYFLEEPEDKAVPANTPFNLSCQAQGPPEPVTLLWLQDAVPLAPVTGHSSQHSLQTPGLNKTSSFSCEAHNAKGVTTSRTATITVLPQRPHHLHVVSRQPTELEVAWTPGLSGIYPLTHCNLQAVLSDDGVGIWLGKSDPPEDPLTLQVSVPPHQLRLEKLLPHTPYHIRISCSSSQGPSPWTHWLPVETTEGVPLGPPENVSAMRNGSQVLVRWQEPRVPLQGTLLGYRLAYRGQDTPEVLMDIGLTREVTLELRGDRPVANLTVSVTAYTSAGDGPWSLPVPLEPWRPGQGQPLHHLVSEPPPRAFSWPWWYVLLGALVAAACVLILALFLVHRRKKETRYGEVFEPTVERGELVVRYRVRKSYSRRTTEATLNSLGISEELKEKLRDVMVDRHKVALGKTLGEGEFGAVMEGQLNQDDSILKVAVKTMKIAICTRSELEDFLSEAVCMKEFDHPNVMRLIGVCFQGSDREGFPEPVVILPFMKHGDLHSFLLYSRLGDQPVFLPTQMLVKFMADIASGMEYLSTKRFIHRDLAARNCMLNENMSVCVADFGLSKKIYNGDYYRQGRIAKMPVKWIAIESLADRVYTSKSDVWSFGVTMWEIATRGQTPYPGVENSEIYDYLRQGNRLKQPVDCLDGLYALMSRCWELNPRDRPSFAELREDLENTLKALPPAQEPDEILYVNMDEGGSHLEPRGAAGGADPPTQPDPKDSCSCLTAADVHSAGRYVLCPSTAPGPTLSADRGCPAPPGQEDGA
Text: (§1) The red box indicates Axl. […] Six replicates per group. two-tailed t-test. *P<0.05. […] Epithelial cells are stained with EpCam and indicated by GFP. X63 magnification. […] Total flux measurement of at the end point. **P<0.01. two-tailed t-test. […] Total flux measurement of tumors was done at the end point. **P<0.01. two-tailed t-test.
(§2) Gas6 is a ligand of Axl and is secreted mainly by tumor-associated macrophages in the TME (Loges et al., 2010), raising the possibility that macrophage-derived Gas6 might activate Axl to support the growth of APC-deficient cancer cells.
Cell lysates were prepared with RIPA lysis buffer (Roche) with protease inhibitor […] Immunoblotting was performed following standard protocol. Antibodies were purchased from the indicated companies.

[1] = system: LS180 and HT-29 cell lines; test: Colony formation assay with Gas6 and R428; type: cell-based, human; conditions: Gas6 25 ng with R428 1 μM, 36 hr
Text: as §1, §2
Colorectal cancer cell proliferation in vitro was assayed through colony formation. 1×10^3 cells were seeded in each well of 6-well plates and cultured for 5-7 days. At the end point, cells were fixed and stained with 0.5% crystal violet in 25% methanol for 1 hr. These studies were performed in triplicate.

[2] = system: APC-WT and APC-KO MC38 cells; test: Cell viability assay with R428; type: cell-based, mouse; conditions: R428 0.5 μM, 48 h
Text: as §1, §2

Raw264.7 = test: Transwell migration assay of macrophages in conditioned media; type: cell-based, mouse; conditions: recombinant CXCL5 protein 50 ng, 36 hr
Description: Two-way ANOVA analysis. […] Dox food was applied at day 5 post-orthotopic injection to induce TDO2 knockdown in vivo. n=4 per group. n.s.P>0.05, *P<0.05, […], ****P<0.0001. two-tailed t-test. […] FIGS. 12D and 12E show quantification of macrophages (F4/80+; FIG. 12D) and M2 macrophages (CD206+; FIG. 12E) in tumors shown in FIG. 12C. CyTOF data analyzed by FlowJo. Data represent mean±s.d., n=3 per group. *P<0.05, **P<0.01. two-tailed t-test. […] Recombinant CXCL5 protein (50 ng) and SX-682 (1 μM) were added to harvested condition media for 36 hr. Scale bar, 100 μm. n=3 biological replicates. Quantification is shown in lower panel. n.s. P>0.05, ***P<0.001, ****P<0.0001. two-tailed t-test. […] Clondronate liposomes or control encapsome liposomes were given intraperitoneally (100 μl) at day 2 post-orthotopic injection and three times a week. […]
Macrophages (1×10^4 for Raw264.7 and BMDM) were suspended in serum-free culture medium and seeded into 24-well Transwell inserts ([…]). […] After 24 h, the migrated macrophages were fixed and stained with crystal violet (0.05%, sigma), and then counted as cells per field of view under microscope or measured as OD590 nm (expressed as migration index) after crystal violet was dissolved.

Raw264.7 cells = test: RT-qPCR of M2 macrophage signature genes in Raw264.7 cells with conditioned media; type: cell-based, mouse; conditions: conditioned media from APC-KO MC38 cells, 30 h
Description: (§3) Scale bars, 50μm. […] Scale bars, 100 μm. […] (isTDO2 and isTDO2/shCXCL5 #2 groups, n=7, isTDO2/shCXCL5 #3, n=8). ****P<0.0001. two-tailed t-test. […] (shControl and shCXCL5 #2 groups, n=7, shCXCL5 #3, n=8). ****P<0.0001. two-tailed t-test.
(§4) RNA was isolated from cells using Trizol (Invitrogen) following the manufacturer's instructions. RNA (200-500 ng) was first treated with RNase-free DNase I using the DNA-free kit (Ambion) to remove all genomic DNA, and then reverse-transcribed into cDNA using an ABI High Capacity cDNA RT Kit (Invitrogen). The cDNA was analyzed using real-time quantitative PCR (SYBR Green, Invitrogen) with an Applied Biosystems 7900 Sequence Detection System. Each reaction was performed in triplicate. The expression of each gene was normalized by that of mouse Actin or human GAPDH.

BMDM [3] = test: RT-qPCR of M2 macrophage signature genes in BMDM; type: cell-based, mouse; conditions: CXCL5 50 ng, Kyn 1 mM, 24 hr
Description: as §3, §4

BMDM [4] = test: RT-qPCR analysis of Gas6 expression in BMDM; type: cell-based, mouse; conditions: Kyn 1 mM, CXCL5 50 ng, Gas6 25 ng, 24 hr
Description: as §1
(§5) To evaluate whether secreted factors from cancer cells might upregulate Gas6 expression in macrophages, BMDMs were incubated with conditioned media from MC38 cell lines. […] (FIG. 15H). Finally, to validate the roles of Gas6 in promoting tumor growth in vivo, CT26 cell lines and two independent Raw 264.7 shGas6 cell lines were co-injected into syngeneic Balb/CJ mice (FIG. 15I).
as §4

CT26 = test: Orthotopic co-injection of CT26 cells and Raw264.7 macrophages, tumor growth; type: in vivo, mouse; conditions: Raw264.7 pre-treated with 100 ng of CXCL5 for 48 h before injection; BalB/CJ mice
Description: as §1, §5
Mice were grouped by 5 animals in large plastic cages and were maintained under pathogen-free conditions. All animal studies were performed with the approval of MD Anderson Cancer Center's Institutional Animal Care and Use Committee (IACUC). NSG (NOD.Cg-Prkdc^scid Il2rg^tm1Wjl/SzJ), C57BL/J6J, and BALB/cJ mice were purchased from Jackson laboratory (Stock No: 005557, 000664, 000651). Colorectal orthotopic xenograft tumor models were established by following protocol (Tseng et al., 2007, JoVE).

Axl phosphorylation (Axl)	Compound	effect on Gas6-promoted cancer cell growth [1]	sensitivity of APC-deficient vs APC-intact MC38 cells [2]	macrophage recruitment with CM from APC-KO TDO2 depleted MC38 cells (Raw264.7)	M2 macrophage markers decreased by TDO2 knockdown (Raw264.7 cells)	M2 macrophage markers (BMDM [3])	Gas6 expression (BMDM [4])	growth of CT26 tumors co-injected with pre-treated macrophages (CT26)
reduce Axl phosphorylation	Nc1nc(Nc2ccc3c(c2)CCC(N2CCCC2)CC3)nn1-c1cc2c(nn1)-c1ccccc1CCC2 (centres unmarked) [R428]	reversed by R428 treatment	increased sensitivity	–	–	–	–	–
–	CXCL5: recombinant CXCL5 protein, cytokine	–	–	rescue of macrophage recruitment	rescued by CXCL5 supplementation	M2 macrophage markers increased	increased Gas6 expression	promoted the growth of CT26 significantly

Reference: patent US20230250433A1, “METHODS AND COMPOSITIONS FOR TREATMENT OF APC-DEFICIENT CANCER” (Board of Regents, The University of Texas System, priority 2020, published 2023)
